Earlier results on one compound are cited in US20090263467A1, “COMBINATION DRUG THERAPY USING ORALLY DISSOLVING FILM OR ORALLY DISINTEGRATING TABLET DOSAGE FORMS TO TREAT DRY MOUTH AILMENTS” (priority 2008, published 2009).

Broadly, the half-life is the time in which the quantity being followed falls by half.

For series [1] the following is noted: neutral pH.

In the case of `CC[C@@H]1C(=O)OC[C@@H]1Cc1cncn1C` [Pilocarpine], the half-life was 45.6 min. Besides, in series [1], the permeability result is “higher”.
